Data on nine compounds can be found in patent publication US20050014816A1, “Thiophene amino acid derivatives, process for preparing them and pharmaceutical compositions containing them” (Pfizer Inc, priority 2003, published 2005).

As usually defined, the IC50 is the midpoint of a concentration-inhibition curve.

One assay has as its target MMP-12 (Homo sapiens, UniProt P39900). Description: in vitro inhibitory activity on MMP-12 (proteolysis of FP-1 peptide substrate). Conditions: FP-1 substrate 10 μM, 20 minutes at room temperature. In kind it is biochemical. As to the method:
in vitro Evaluation of the Inhibitory Activity of the Compounds of the Invention on MMP-12:
The inhibitory activity of the compounds of formula (I) on metalloprotease-12 is evaluated by testing the capacity of the compounds of the invention to inhibit the proteolysis of a peptide that is an MMP-12 substrate.
The substrate peptide used (fluorigenic peptide-1: FP-1) in the test has the following sequence: Mca-Pro-Leu-Gly-Leu-Dap(Dnp)-Ala-Arg-NH2.
The inhibitory activity of a compound of formula (I) is expressed as the IC50 value, which represents the concentration of inhibitor for which a 50% inhibition of the metalloprotease is observed.
The reaction starts with the sequential addition of 41 μl of FP-1 substrate (final concentration of 10 μM) to a buffer solution of 50 mM of Tris-HCl and 10 mM of CaCl2, and containing 5 mM of hydroxamic acid and 5 μl of the enzyme diluted in a 0.005% Brij-35 buffer solution. The microplates are incubated for 20 minutes at room temperature. The compounds of the invention are tested at concentrations ranging from 0.3 to 30 μM. The measurement of the amount of proteolysis of the peptide substrate is monitored by means of a measurement of absorbance at 405 nm using a microplate spectrophotometer, at room temperature. The IC50 values are calculated from curves in which the percentage of the catalytic activity relative to the control is represented on the […] and the inhibitor concentration is represented on the y-axis.

A further assay addresses MMP-13 (Homo sapiens, UniProt P45452). Description: MMP-12 inhibition test adapted to MMP-13. It counts as biochemical. To be noted: test for MMP-12 adapted to MMP-13.

Sequence of MMP-12 (P39900 106-470): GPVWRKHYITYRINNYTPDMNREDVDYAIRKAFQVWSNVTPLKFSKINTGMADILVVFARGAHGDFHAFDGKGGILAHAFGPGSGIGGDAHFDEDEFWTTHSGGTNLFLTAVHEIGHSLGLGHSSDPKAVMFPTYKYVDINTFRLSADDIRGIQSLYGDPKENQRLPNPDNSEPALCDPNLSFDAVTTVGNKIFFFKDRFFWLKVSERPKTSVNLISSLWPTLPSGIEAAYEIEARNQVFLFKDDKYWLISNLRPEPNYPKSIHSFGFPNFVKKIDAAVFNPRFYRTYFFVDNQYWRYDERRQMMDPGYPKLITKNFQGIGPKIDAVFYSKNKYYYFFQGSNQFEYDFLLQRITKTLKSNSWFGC
Procedure for MMP-13: The reaction starts with the sequential addition of 41 μl of FP-1 substrate (final concentration of 10 μM) to a buffer solution of 50 mM of Tris-HCl and 10 mM of CaCl2, and containing 5 mM of hydroxamic acid and 5 μl of the enzyme diluted in a 0.005% Brij-35 buffer solution. The microplates are incubated for 20 minutes at room temperature. The compounds of the invention are tested at concentrations ranging from 0.3 to 30 μM. The measurement of the amount of proteolysis of the peptide substrate is monitored by means of a measurement of absorbance at 405 nm using a microplate spectrophotometer, at room temperature. The IC50 values are calculated from curves in which the percentage of the catalytic activity relative to the control is represented on the x-axis and the inhibitor concentration is represented on the y-axis.
The test described above for the inhibition of MMP-12 is adapted and used to determine the capacity of the compounds of formula (I) to inhibit the metalloproteases MMP-1, MMP-2, MMP-3, MMP-7, MMP-9, MMP-13 and MMP-14.

As to `O=C(N[C@H](C(=O)O)c1ccccc1)c1cc(-c2ccc(OC(F)(F)F)cc2)cs1` [Example 2], the IC50 on MMP-12 came to 0.38 µM; against MMP-13 it was 4.5 µM.

On to `NC(=O)C[C@@H](NC(=O)c1cc(-c2ccc(OC(F)(F)F)cc2)cs1)c1ccccc1` [Example 9], for which the concentration for half-maximal inhibition (IC50) turned out to be 0.077 µM at MMP-12 and 0.96 µM against MMP-13.

As for `O=C(O)CC(NC(=O)c1cc(-c2ccc(OC(F)(F)F)cc2)cs1)c1ccccc1` (racemic) [Example 6, {1[(4-Trifluoromethoxyphenyl)thien-2-yl]carboxamido}(phenyl)-propanoic acid], the half-inhibitory concentration (IC50) came out at 0.42 µM against MMP-12 and 3.6 µM on MMP-13.

As to `O=C(O)C[C@H](Cc1ccccc1)NC(=O)c1cc(-c2ccc(OC(F)(F)F)cc2)cs1` [Example 12, (3S)-3-{[4-(4-Trifluoromethoxyphenyl)thien-2-yl]carboxamido)-4-phenylbutanoic acid], the IC50 on MMP-12 amounted to 0.53 µM; against MMP-13, 8.3 µM.

As to `CC(=O)c1ccc(-c2ccc(-c3csc(C(=O)N[C@H](CC(=O)O)c4ccccc4)c3)cc2)cc1` [Example 20], the IC50 was 0.028 µM on MMP-12 and 0.069 µM on MMP-13.

With `CC(=O)c1ccc(-c2ccc(-c3csc(C(=O)N[C@H](C(=O)O)c4ccccc4)c3)cc2)cc1` [Example 18, (2S)4-[({4-[4-(4-Acetylphenyl)phenyl]thien-2-yl}carbonyl)amino]-(phenyl)acetic acid], the values for the IC50 against MMP-12 and against MMP-13 were 0.04 µM and 0.12 µM, respectively.

Consider `O=C(N[C@@H](C(=O)O)c1ccccc1)c1cc(-c2ccc(OC(F)(F)F)cc2)cs1` [Example 4, (2R)-{[4-(4-Trifluoromethoxyphenyl)thien-2-yl]carboxamido}-(phenyl)acetic acid], for which the half-maximal inhibitory concentration (IC50) at MMP-12 worked out at 0.47 µM; against MMP-13 it was 5.6 µM.

Take `O=C(N[C@H](C(=O)O)c1ccccc1)c1cc(-c2ccc(C3CCCCC3)cc2)cs1` [Example 16, (2S)-{[4-(4-cyclohexylphenyl)thien-2-yl]carboxamido}(phenyl)acetic acid]: the 50% inhibitory concentration (IC50) turned out to be 0.54 µM at MMP-12 and 6.5 µM at MMP-13.

With `O=C(N[C@H](Cc1ccccc1)C(=O)O)c1cc(-c2ccc(OC(F)(F)F)cc2)cs1` [Example 8, (2R)-{[4-(4-Trifluoromethoxyphenyl)thien-2-yl]carboxamido}(phenyl)-propanoic acid], the values for the IC50 against MMP-12 and at MMP-13 were 0.18 µM and 2.2 µM, respectively.
